10 molecules from patent US20120295915A1, “AZABENZIMIDAZOLES AS FATTY ACID SYNTHASE INHIBITORS” (priority 2009, published 2012) can be followed below.

FAS, sequence (P49327 whole entry): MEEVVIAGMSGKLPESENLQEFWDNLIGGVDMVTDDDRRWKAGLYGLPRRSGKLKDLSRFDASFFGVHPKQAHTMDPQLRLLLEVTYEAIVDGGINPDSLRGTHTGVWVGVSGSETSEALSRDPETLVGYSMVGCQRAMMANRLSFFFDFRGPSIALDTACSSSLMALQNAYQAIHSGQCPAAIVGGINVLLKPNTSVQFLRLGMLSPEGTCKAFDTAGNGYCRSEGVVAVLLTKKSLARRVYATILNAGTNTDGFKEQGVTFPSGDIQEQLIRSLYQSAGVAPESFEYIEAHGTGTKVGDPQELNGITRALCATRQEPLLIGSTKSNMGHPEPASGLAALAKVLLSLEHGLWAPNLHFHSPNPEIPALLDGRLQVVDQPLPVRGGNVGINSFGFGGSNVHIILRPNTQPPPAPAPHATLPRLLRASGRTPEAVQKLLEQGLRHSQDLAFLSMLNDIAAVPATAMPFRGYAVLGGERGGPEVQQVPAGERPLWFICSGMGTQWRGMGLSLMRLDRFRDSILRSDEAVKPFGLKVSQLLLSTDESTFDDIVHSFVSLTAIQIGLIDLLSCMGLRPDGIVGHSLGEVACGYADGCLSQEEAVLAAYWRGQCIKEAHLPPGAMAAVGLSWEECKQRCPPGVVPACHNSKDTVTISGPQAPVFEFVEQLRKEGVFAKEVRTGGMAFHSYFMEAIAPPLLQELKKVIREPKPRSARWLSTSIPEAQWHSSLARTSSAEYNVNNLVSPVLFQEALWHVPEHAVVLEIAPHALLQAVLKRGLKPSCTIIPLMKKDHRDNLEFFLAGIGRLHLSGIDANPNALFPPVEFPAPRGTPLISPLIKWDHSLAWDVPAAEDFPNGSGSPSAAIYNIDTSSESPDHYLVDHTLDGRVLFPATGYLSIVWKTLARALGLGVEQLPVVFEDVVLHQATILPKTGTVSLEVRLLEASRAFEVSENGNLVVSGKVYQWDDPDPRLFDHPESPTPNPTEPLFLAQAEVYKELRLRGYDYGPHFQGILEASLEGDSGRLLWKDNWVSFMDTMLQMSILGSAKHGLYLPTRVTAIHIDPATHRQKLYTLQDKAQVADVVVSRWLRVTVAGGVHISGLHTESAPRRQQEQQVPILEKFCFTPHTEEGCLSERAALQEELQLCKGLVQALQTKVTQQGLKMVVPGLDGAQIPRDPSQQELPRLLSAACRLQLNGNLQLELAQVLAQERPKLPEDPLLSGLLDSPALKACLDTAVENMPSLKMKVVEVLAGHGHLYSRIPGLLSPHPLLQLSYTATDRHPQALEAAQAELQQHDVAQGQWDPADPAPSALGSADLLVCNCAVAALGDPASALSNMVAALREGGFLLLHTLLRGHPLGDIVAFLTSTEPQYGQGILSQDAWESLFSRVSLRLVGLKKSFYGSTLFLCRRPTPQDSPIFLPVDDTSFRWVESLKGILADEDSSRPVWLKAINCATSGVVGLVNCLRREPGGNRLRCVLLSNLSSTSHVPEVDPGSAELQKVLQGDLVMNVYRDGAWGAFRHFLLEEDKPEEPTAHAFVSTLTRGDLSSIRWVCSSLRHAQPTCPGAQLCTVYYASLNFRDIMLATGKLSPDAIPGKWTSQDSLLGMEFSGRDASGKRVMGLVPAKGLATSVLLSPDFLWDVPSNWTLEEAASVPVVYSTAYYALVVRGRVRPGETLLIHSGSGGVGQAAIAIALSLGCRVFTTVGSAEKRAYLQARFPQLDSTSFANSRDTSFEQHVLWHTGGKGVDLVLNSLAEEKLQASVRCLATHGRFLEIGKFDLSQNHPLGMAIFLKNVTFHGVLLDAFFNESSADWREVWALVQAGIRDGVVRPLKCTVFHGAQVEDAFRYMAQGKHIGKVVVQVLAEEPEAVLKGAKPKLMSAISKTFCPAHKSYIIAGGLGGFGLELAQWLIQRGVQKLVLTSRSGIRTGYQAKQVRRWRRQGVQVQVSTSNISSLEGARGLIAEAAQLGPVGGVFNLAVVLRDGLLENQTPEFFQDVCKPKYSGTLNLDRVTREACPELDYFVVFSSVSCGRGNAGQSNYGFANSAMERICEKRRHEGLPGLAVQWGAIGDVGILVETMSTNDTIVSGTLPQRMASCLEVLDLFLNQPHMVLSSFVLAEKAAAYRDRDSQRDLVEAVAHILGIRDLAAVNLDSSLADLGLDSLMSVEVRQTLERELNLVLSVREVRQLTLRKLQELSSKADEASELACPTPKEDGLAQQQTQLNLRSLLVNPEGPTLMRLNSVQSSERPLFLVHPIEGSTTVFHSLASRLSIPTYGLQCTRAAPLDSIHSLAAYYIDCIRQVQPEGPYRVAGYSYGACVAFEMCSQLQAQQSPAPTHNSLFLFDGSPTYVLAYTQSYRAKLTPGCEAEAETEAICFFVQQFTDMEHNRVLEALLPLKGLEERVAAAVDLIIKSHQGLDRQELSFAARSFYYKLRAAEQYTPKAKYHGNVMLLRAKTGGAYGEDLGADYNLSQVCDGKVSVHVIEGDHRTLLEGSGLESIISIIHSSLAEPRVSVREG

In the assay the target is FAS (Homo sapiens, UniProt P49327). Description: FAS assay (Assay #1 residual NADPH detection or Assay #2 CoA detection with CPM dye). The settings on record: in at least one experimental run; tested generally according to the assays described (assay #1 or #2 not specified). The class given is biochemical. The protocol:
FAS assay FAS activity was measured through one of the two following assays.
Inhibition of FAS activity can be measured based on the detection of residual NADPH substrate after the FAS assay is quenched. This assay is run as a 10 μL endpoint assay in 384-well format, where the reaction contains 20 μM malonyl-CoA, 2 μM acetyl-CoA, 30 μM NADPH and 40 nM FAS in 50 mM sodium phosphate, pH 7.0. The assay is run by sequentially dispensing 5 μl of a malonyl-CoA solution, then enzyme solution (containing the acetyl-CoA, and NADPH) into a black, low volume assay plate (Greiner 784076) pre-dispensed with […] compound solutions in DMSO. The reaction is incubated at ambient temperature for 60 minutes, then quenched with 5 μL of a developing solution composed of 90 μM resazurin, 0.3 IU/ml diaphorase in 50 mM sodium phosphate, pH 7.0. The developed reaction is read on a Molecular Devices Analyst or Acquest (or equivalent) plate reader using a 530 nm excitation wavelength filter, a 580 nm emission filter, and 561 nm dichroic filter. The test compounds are prepared in neat DMSO at a concentration of 10 mM. For inhibition curves, compounds are diluted using a three fold serial dilution and tested at 11 concentrations (e.g. 25 μM-0.42 nM). Curves are analysed using Activityl)ase and XLfit, and results are expressed as pIC50 values.
Inhibition of FAS can also be quantified based on the detection of the CoA products with a thio-reactive coumarin dye. This assay is run as a 10 μL endpoint assay in 384-well format, where the reaction contains 20 μM malonyl-CoA, 20 μM acetyl-CoA, 40 μM NADPH and 2 nM FAS in 50 mM sodium phosphate, pH 7.0, and 0.04% Tween-20. The assay is run by adding 5 μL enzyme solution to a black, low volume assay plate (Greiner 784076) pre-dispensed with 100 nl compound solutions in DMSO. After 30 minutes, 5 μL substrate is added, and the reaction incubated at ambient temperature for an additional 60 minutes. The reaction is then quenched with 10 μL of 6M guanidine-HCl containing 50 μM CPM (7-diethylamino-3-(4′-maleimidylphenyl)-4-methylcoumarin (CPM; thio-reactive dye), and incubated for 30 minutes. The plate is read on an Envision (PerkinElmer) or equivalent plate reader using a 380 nm excitation wavelength filter, and a 486 nm emission filter. Data fitting and compound preparations are done as described above.
As a reminder, the IC50 is the concentration needed to halve the response being measured. High values mean a need for much substance, low ones inhibition by little substance. On to `Cc1cccc(-c2ccc(-c3nc4ncccc4n3C[C@@H]3CCN(C(=O)C4CC4)C3)cc2)c1` [Example 2, 1-{[(3S)-1-(cyclopropylcarbonyl)-3-pyrrolidinyl]methyl}-2-(3′-methyl-4-biphenylyl)-1H-imidazo[4,5-b]pyridine], for which the midpoint of inhibition, the IC50, lay at 63 nM.
Take `CN(C)C(=O)N1CC[C@@H](Cn2c(-c3ccc(-c4ccccc4)cc3)nc3cnccc32)C1` [Example 19, (3S)-3-{[2-(4-biphenylyl)-1H-imidazo[4,5-c]pyridin-1-yl]methyl}-N,N-dimethyl-1-pyrrolidinecarboxamide]: the IC50 is 1060 nM.
`O=C(C1CC1)N1CC[C@@H](Cn2c(-c3ccc(-c4ccc5occc5c4)cc3)nc3cnccc32)C1` [Example 22, 2-[4-(1-benzofuran-5-yl)phenyl]-1-{[(3S)-1-(cyclopropylcarbonyl)-3-pyrrolidinyl]methyl}-1H-imidazol[4,5-c]pyridine]: inhibition was half-maximal at 60 nM (IC50).
Take `O=C(C1CC1)N1CC[C@@H](Cn2c(-c3ccc(-c4ccc5[nH]ccc5c4)cc3)nc3cnccc32)C1` [Example 25, 1-{[(3S)-1-(cyclopropylcarbonyl)-3-pyrrolidinyl]methyl}-2-[4-(1H-indol-5-yl)phenyl]-1H-imidazo[4,5-c]pyridine]: half-maximal inhibition (IC50) required 19 nM.
The figure for `COc1ccc(-c2ccc(-c3nc4cccnc4n3C[C@@H]3CCN(C(=O)C4CC4)C3)cc2)cc1` [Example 27, 3-{[(3S)-1-(cyclopropylcarbonyl)-3-pyrrolidinyl]methyl}-2-[4′-(methyloxy)-4-biphenylyl]-3H-imidazo[4,5-b]pyridine] is 45 nM; for `O=C(C1CC1)N1CC[C@@H](Cn2c(-c3ccc(-c4ccc5cc[nH]c5c4)cc3)nc3cccnc32)C1` [Example 35, 3-{[(3S)-1-(cyclopropylcarbonyl)-3-pyrrolidinyl]methyl}-2-[4-(1H-indol-6-yl)phenyl]-3H-imidazo[4,5-b]pyridine] it is 9 nM.
In turn, `O=C(C1CC1)N1CC[C@@H](Cn2c(-c3ccc(-c4ccccc4)cc3)nc3c(Cl)ncnc32)C1` [Example 46, 8-(4-biphenylyl)-6-chloro-9-{[(3S)-1-(cyclopropylcarbonyl)-3-pyrrolidinyl]methyl}-9H-purine] displayed an IC50 of 129 nM.
The figure for `O=C(C1CC1)N1CC[C@@H](Cn2c(-c3ccc(-c4cnc5[nH]ccc5c4)cc3)nc3cnccc32)C1` [Example 54, 1-{[(3S)-1-(cyclopropylcarbonyl)-3-pyrrolidinyl]methyl}-2-[4-(1H-pyrrolo[2,3-b]pyridin-5-yl)phenyl]-1H-imidazo[4,5-c]pyridine] is 142 nM.
Molecule `O=C(C1CC1)N1CC[C@@H](Cn2c(-c3ccc(-c4cccc5[nH]ccc45)cc3)nc3cnccc32)C1` [Example 55, 1-{[(3S)-1-(cyclopropylcarbonyl)-3-pyrrolidinyl]methyl}-2-[4-(1H-indol-4-yl)phenyl]-1H-imidazo[4,5-c]pyridine] returned an IC50 of 13 nM.
For the molecule `O=C(C1CC1)N1CC[C@@H](Cn2c(-c3ccc(-c4ccc5scnc5c4)cc3)nc3cnccc32)C1` [Example 58, 2-[4-(1,3-benzothiazol-5-yl)phenyl]-1-{[(3S)-1-(cyclopropylcarbonyl)-3-pyrrolidinyl]methyl}-1H-imidazo[4,5-c]pyridine], the IC50 was found to be 10 nM. This IC50 and that of the molecule before are within 1.5-fold of each other.
